Test results published in patent US20220356163A1, “SMALL MOLECULE INHIBITORS OF Id PROTEINS” (MEMORIAL SLOAN KETTERING CANCER CENTER, priority 2019, published 2022).

What was measured:
HUVEC = HUVEC growth, cell cycle and Cyclin D1; type: cell-based, human
Method: Immunoblotting. For immunoblotting, cells were collected by trypsinization, washed with PBS and lysed in homogenization buffer (0.3 M sucrose, 10 mM Tris (pH 8.0), 400 mM sodium chloride, 3 mM magnesium chloride, 0.5% NP40/IGEPAL, 100 μg/mL Aprotinin+Protease inhibitor cocktail (Roche #11 836 153 001). Proteins were separated by SDS-PAGE, transferred to a membrane (LI-COR), probed with primary antibodies overnight at 4° C., and probed with secondary antibodies (LI-COR) for 1-2 hours at room temperature. Proteins were visualized using the LI-COR Odyssey Infrared Imaging detection system. The following primary antibodies were used Id1, Id2, Id3, Id4 (195-14, 9-2-8, 17-3, 82-12, respectively, all from Biocheck), Cyclin D1 (2978, Cell Signaling), Actin (A2066, Sigma), Tubulin (T4026, Sigma). Western blot quantification was carried out using channel 700 and channel 800 intensity data from Odyssey application software version 3.0.30 (LI-COR), subtracting blank values and normalizing to Tubulin.
Cell viability assays. Cell lines were seeded in a 96 well plate (5000 cells per well). After overnight incubation, cells were treated with AGX51 and incubated for 24 hours then MTT reagent (5 mg/mL) was added per well and the cells were incubated for four hours. Following incubation, media was aspirated and 200 μL DMSO was added per well. Absorbance was then measured at 570 nm using a plate reader (Synergy 2, BioTek). Cell growth profiles were determined by seeding 38,000 cells in a 24-well plate, in triplicate for each time point, and counting the cells on days 1, 3 and 5 after seeding, using trypan blue exclusion of dead cells.
Cell cycle analysis. […] For cell cycle analysis cells were centrifuged 1000 rpm for 5 minutes, washed with 1×PBS and then resuspended in 0.5 mL PI/RNase staining buffer (550825, BD Biosciences), incubated for 15 minutes at room temperature and analyzed by flow cytometry (LSR II).

Id3 = target: T1, Id3 (Mus musculus, UniProt P41133); assay: Circular dichroism (CD) of Id3; type: binding; conditions: 0 or 100 μM
T1 construct: GST (cleaved yes); made in house; host or cells: E. coli Rosetta 2(DE3)
T1 sequence (P41133 whole entry): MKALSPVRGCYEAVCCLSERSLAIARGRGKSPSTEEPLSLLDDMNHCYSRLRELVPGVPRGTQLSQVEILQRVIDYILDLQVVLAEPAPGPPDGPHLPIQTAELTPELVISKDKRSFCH
Method: Id protein purification. pGEV-PSP-mId1 and mId3 expression constructs were transformed into Rosetta 2(DE3) Competent Cells (Sigma Millipore) for protein expression. To produce recombinant GST-tagged protein, a 50 mL LB/Ampicillin (100 μg/m)+Chloramphenicol (25 μg/mL) culture was grown overnight at 37° C. Early the next day, the overnight culture was diluted 1:100 into 6 L LB/Ampicillin+Chloramphenicol and cultured at 37° C. for about four hours until OD600=0.7. Cultures were induced with 1 mM IPTG and incubated at 16° C. for 16-18 hours. Cells were harvested by centrifugation at 4000 rpm for 15 minutes at 4° C. and the pellet was resuspended in lysis buffer (50 mM Tris pH 8.0; 400 mM NaCl; 0.5 mM TCEP, Protease Inhibitor Cocktail) (25 mL/L of culture). To lyse the cells, Triton X-100 and lysozyme were added to 0.1% and 10 μg/mL respectively, incubated for 30 minutes on ice and sonicated. Lysates were spun at 17,000 rpm for 30 minutes at 4° C. and supernatants were filtered through a […] filter before incubation with glutathione sepharose for two hours at 4° C. The sepharose with bound protein was run through a polypropylene column and washed twice with 50 mL wash buffer (50 mM Tris pH 8.0; 400 mM NaCl) before protein was eluted with 10 mL 50 mM glutathione elution buffer, pH 8.0. […]

CCC(=O)N(CCC(c1ccc2c(c1)OCO2)c1ccccc1OC)Cc1ccccc1 (racemic) [AGX51, N-(3-(benzo[d][1,3]dioxol-5-yl)-3-(2-methoxyphenyl)propyl)-N-benzylpropionamide]
Cyclin D1 levels (HUVEC; 0-40 μM, 24 hours): reduction in Cyclin D1 levels
cell viability (HUVEC; 20 μM): reduced cell viability
cell cycle (HUVEC; 20 μM, 24 hours): G0/G1 growth arrest
effect on Id3 secondary structure (CD) (Id3): small but reproducible effect
